System: ATCC 43300 MRSA strain
Experiment: In vivo murine model of catheter associated infection, 24 h and 72 h MRSA biofilms
Design: species or system Staphylococcus aureus
Details: for Log10 CFU/g of catheter (D 6) Mean ± SEM / ΔLog10 CFU/g of catheter from (D 1) Mean ± SEM: 5.5-day treatment (D1-D6); for Log10 CFU/g of catheter (D 6) Mean ± SEM / ΔLog10 CFU/g of catheter from (D 1) Mean ± SEM / Log10 CFU/g of catheter (D 8) Mean ± SEM / ΔLog10 CFU/g of catheter from (D 3) Mean ± SEM: BALB/c mice; for Log10 CFU/g of catheter (D 6) Mean ± SEM / Log10 CFU/g of catheter (D 8) Mean ± SEM: doses as in Table 2; for ΔLog10 CFU/g of catheter from (D 1) Mean ± SEM: change from baseline D 1; for CR (%) cure rate / mean reduction of the initial MRSA load: 5.5-day treatment; for CR (%) cure rate: percentage of mice without catheter-associated bacteria; for Log10 CFU/g of catheter (D 8) Mean ± SEM / ΔLog10 CFU/g of catheter from (D 3) Mean ± SEM: 5.5-day treatment (D3-D8); for ΔLog10 CFU/g of catheter from (D 3) Mean ± SEM: change from baseline D 3; for mean reduction of the initial MRSA load: given as positive reduction
Method: Two experimental settings were used in this study to evaluate the treatment efficacies against early (24h) and/or mature (72h) MRSA catheter formed biofilms. Briefly, mice were anaesthetised by an IP injection of about 120 μl a mix of ketamine (50 mg/kg) and xylazine (10 mg/kg) (4 mL ketamine+2 mL xylazine+10 mL saline). Flank on the right side was shaved and then disinfected by 3 consecutive applications of betadine. A cutaneous and then subcutaneous (SC) incisions of 0.2 cm were made under sterile conditions and a 1 cm segment of polyurethane catheter (Ref. No. ES-04730 Arrow international) cut into 2 longitudinal fragments was inserted SC (into the incision and then pushed further under the skin, about 2 cm away from the incision). The inoculation was done simultaneously by placing 50 μl of the bacterial culture onto the catheter (10^6 CFU of ATCC 43300 MRSA strain). The incision was stitched up and disinfected. The day of the infection was referred to as Day0 (D0). To ensure that the study was conducted in sterile conditions from the start to the end of the experiment, non-infected mice (sentinel group) were included. Treatments started either on D1 or D3 post infection, corresponding to early (24h) or more mature (72h) catheter formed biofilms, respectively, and lasted for 5.5 days (D1-D6) or (D3-D8). In both 24 h and 72h biofilm settings, two groups of infected non-treated animals (Vehicle controls) were evaluated for bacterial counts: at baseline (24h or D1 [for 24-h biofilm] and 72h or D3 [for 72-h biofilm] post infection, i.e. time points corresponding to treatments initiations) and at the termination of treatment duration (D6 [for 24-h biofilm] and D8 [for 72-h biofilm] post infection). Post treatment CFUs were counted on D6 or D8 and results were expressed as Log10 CFU/g of catheter (Mean±SEM). The limit of detection was determined as being 1 Log10 CFU/g of catheter. Changes of CFU/g of catheter (Δ Log10) from the baseline (D1 or D3 for 24-h and 72-h biofilm, respectively) and cure rates (corresponding to the percentage of mice without catheter-associated bacteria within a given treatment group) were also calculated. In vivo induction of antibiotic-resistant bacteria was analysed for all tested antibiotics.
Antibiotics doses were selected according to the effective doses in animals, which approximated the therapeutic human equivalent doses (HED) (Table 1).
Mice received antibiotics on D1, D2, D3, D4, D5 and D6 (only one administration at D6) or D3, D4, D5, D6, D7 and D8 (only one administration at D8). All antibiotics were administered BID IP, except Debio 1450 BES and Vancomycin, which were respectively given PO and SC. Daptomycin was tested as a once daily regimen to avoid tolerability issues. The antibiotics daily dosing was performed with a 10-12 hours interval between the two administrations. For combination therapy, antibiotics were administered simultaneously every 10-12 hours (the time required between the injection of the first antibiotic and the injection of the second antibiotic was less than 30 seconds per mouse).
In each sub-study, animals were randomly assigned to the antibiotic therapies or vehicle controls groups. Dose volumes were calculated according to individual body weight of each animal.
After blood collection, animals were sacrificed by cervical dislocation following anaesthesia. Two fragments of catheter per mouse were collected and were used for bacterial enumeration after sonication. Each fragment of catheter was individually washed under aseptic conditions in an Eppendorf tube (3 successive washing steps with 300 μl sterile saline). After the last wash, the catheter was suspended in 1 mL sterile saline, put in an ultrasonic bath (Advantage Lab) for 3 minutes at room temperature before being vigorously vortexed in order to detach all adherent bacteria from the catheter. Several successive dilutions of this suspension (undiluted, 10-2, […]) were cultured onto Chapman agar plates for 48 h at 37° C. […]

| SMILES | Log10 CFU/g of catheter (D 6) Mean ± SEM (Biofilm (24 h)) | ΔLog10 CFU/g of catheter from (D 1) Mean ± SEM (Biofilm (24 h)) | CR (%) cure rate (Biofilm (24 h)) | Log10 CFU/g of catheter (D 8) Mean ± SEM (Biofilm (72 h)) | ΔLog10 CFU/g of catheter from (D 3) Mean ± SEM (Biofilm (72 h)) | CR (%) cure rate (Biofilm (72 h)) | mean reduction of the initial MRSA load (24 h biofilm) | mean reduction of the initial MRSA load (72 h biofilm) |
| --- | --- | --- | --- | --- | --- | --- | --- | --- |
| CCCCCCCCCC(=O)N[C@@H](Cc1c[nH]c2ccccc12)C(=O)N[C@H](CC(N)=O)C(=O)N[C@@H](CC(=O)O)C(=O)N[C@@H]1C(=O)NCC(=O)N[C@@H](CCCN)C(=O)N[C@@H](CC(=O)O)C(=O)N[C@H](C)C(=O)N[C@@H](CC(=O)O)C(=O)NCC(=O)N[C@H](CO)C(=O)N[C@@H]([C@H](C)CC(=O)O)C(=O)N[C@@H](CC(=O)c2ccccc2N)C(=O)O[C@@H]1C [Daptomycin] | 3.02 ± 0.110 Log10 CFU/g of catheter | −3.64 ± 0.110 Log10 CFU/g of catheter | 25% | 5.42 ± 0.104 Log10 CFU/g of catheter | −1.37 ± 0.104 Log10 CFU/g of catheter | 0% |  |  |
| Cc1c(CN(C)C(=O)/C=C/c2cnc3c(c2)CCC(=O)N3COP(=O)(O)O)oc2ccccc12 [Debio 1450, {6-[(1E)-3-{methyl [(3-methyl-1-benzofuran-2-yl)methyl]amino}-3-oxoprop-1-en-1-yl]-2-oxo-3,4-dihydro-1,8-naphthyridin-1 (2H)-yl} methyl dihydrogen phosphate] | 4.31 ± 0.109 Log10 CFU/g of catheter | −2.35 ± 0.109 Log10 CFU/g of catheter | 8% | 5.75 ± 0.069 Log10 CFU/g of catheter | −1.03 ± 0.069 Log10 CFU/g of catheter | 0% |  |  |
| CO[C@H]1/C=C/O[C@@]2(C)Oc3c(C)c(O)c4c(O)c(c(/C=N/N5CCN(C)CC5)c(O)c4c3C2=O)NC(=O)/C(C)=C\C=C\[C@H](C)[C@H](O)[C@@H](C)[C@@H](O)[C@@H](C)[C@H](OC(C)=O)[C@@H]1C [Rifampicin] | 2.50 ± 0.072 Log10 CFU/g of catheter | −4.17 ± 0.072 Log10 CFU/g of catheter | 39% | 3.80 ± 0.113 Log10 CFU/g of catheter | −2.98 ± 0.113 Log10 CFU/g of catheter | 8% | 4.17±0.072 Log10 CFU/g of catheter | 2.98±0.113 Log10 CFU/g of catheter |
